What was measured:
[1] = In vivo distribution of 68Ga-DOTA-alendronate in rats; set-up: species or system rat; settings: for Blood radioactivity / Bone radioactivity / Kidney radioactivity / Large intestine radioactivity / Liver radioactivity / Muscle radioactivity / Small intestine radioactivity / Spleen radioactivity / Bone/blood: Wistar male rats, 120 minutes after drug administration; for Blood radioactivity / Bone radioactivity / Kidney radioactivity / Large intestine radioactivity / Liver radioactivity / Muscle radioactivity / Small intestine radioactivity / Spleen radioactivity: tail vein; for Bone/blood: ratio of radioactivity accumulation
Procedure: To groups, each containing three Wistar male rats, 0.2 mL of each of 68Ga-DOTA-alendronate and 99mTc-MDP (product name: Techne MDP injection, manufactured by FUJIFILM RI Pharma Co., Ltd., 740 MBq/2 mL), each diluted to 12.3 to 19.8 MBq/mL, was administered into the rat tail vein under anesthesia. Then, 120 minutes after administration, the rats were sacrificed, organs were excised, and the weight and the radioactivity of each organ were measured. The measurement values were calculated as % I.D./g tissue weight, which is the radioactivity in each tissue divided by the tissue weight, as the ratio with respect to the dose.

[2] = Rat in vivo distribution experiment; settings: for Blood radioactivity / Bone radioactivity / Kidney radioactivity / Large intestine radioactivity / Liver radioactivity / Muscle radioactivity / Small intestine radioactivity / Spleen radioactivity / Bone/blood: Wistar male rats; for Blood radioactivity / Bone radioactivity / Kidney radioactivity / Large intestine radioactivity / Liver radioactivity / Muscle radioactivity / Small intestine radioactivity / Spleen radioactivity: tail vein; for Bone/blood: ratio of radioactivity accumulation
Procedure: Subsequently, 15, 30, 60, 120, and 240 minutes after administration, the rats were sacrificed, organs were excised, and the weight and the radioactivity of each organ were measured. The measurement values were calculated as % I.D./g tissue weight, which is the radioactivity in each tissue divided by the tissue weight, as the ratio with respect to the dose.

[3] = Wistar male rats, 18.5 to 37 MBq tail vein, from 60 minutes after administration
Procedure: To Wistar male rats, 68Ga-NOTA-alendronate and 99m Tc-MDP were each administered into the rat tail vein in amounts of 18.5 to 37 MBq under anesthesia. Then, 60 and 180 minutes after administration, images were taken by PET/CT or a SPECT camera.

[4] = system: local bone metastasis model (human prostate cancer-derived cells transplanted into the right tibia); settings: local bone metastasis model mouse, approximately 6.0 MBq, from 60 minutes after administration
Procedure: Human prostate cancer-derived cells were transplanted into the right tibia of a mouse to produce a local bone metastasis model. To this model mouse, approximately 6.0 MBq of 68Ga-NOTA-alendronate was administered into the […] under anesthesia. An image was taken by PET/CT 60 minutes after administration.

Question: Which “radioactivity accumulation in bone” value ([1]; 120 minutes after administration, as 99mTc-MDP did) does the source give for `O=C([O-])CN1CCN(CC(=O)[O-])CCN(CC(=O)NCCCC(O)(P(=O)(O)O)P(=O)(O)O)CCN(CC(=O)[O-])CC1.[68Ga+3]` [68Ga-DOTA-alendronate] here?
Answer: high radioactivity accumulation in bone

Question: And the Blood radioactivity [1]?
Answer: 0.024 % I.D./g

Question: And the Bone radioactivity [1]?
Answer: 4.54 % I.D./g

Question: What about the Kidney radioactivity [1] of the same compound?
Answer: 0.26 % I.D./g

Question: And the Large intestine radioactivity [1]?
Answer: 0.055 % I.D./g

Question: And the Liver radioactivity [1]?
Answer: 0.018 % I.D./g

Question: What about the Muscle radioactivity [1] of the same compound?
Answer: 0.005 % I.D./g

Question: And the Small intestine radioactivity [1]?
Answer: 0.522 % I.D./g

Question: What about the Spleen radioactivity [1] of the same compound?
Answer: 0.020 % I.D./g

Question: What about the clearance from blood ([1]; rat, versus 99mTc-MDP) of the same compound?
Answer: delayed clearance from blood

Question: And the Bone/blood [1]?
Answer: 189

Question: And the “ratio of radioactivity accumulation in bone/blood” value ([1]; two hours after administration, versus 99mTc-MDP)?
Answer: no improvement

Question: Which results are given for `O=C([O-])CN1CCN(CC(=O)[O-])CCN(C(CCC(=O)NCCCC(O)(P(=O)(O)O)P(=O)(O)O)C(=O)[O-])CC1.[68Ga+3]` (stereo not drawn) [68Ga-NOTA-alendronate]?
Answer: Blood radioactivity ([2]; 15 min after administration): 0.399 % I.D./g; Bone radioactivity ([2]; 15 min after administration): 3.64 % I.D./g; Kidney radioactivity ([2]; 15 min after administration): 3.43 % I.D./g; Large intestine radioactivity ([2]; 15 min after administration): 0.132 % I.D./g; Liver radioactivity ([2]; 15 min after administration): 0.081 % I.D./g; Muscle radioactivity ([2]; 15 min after administration): 0.085 % I.D./g; Small intestine radioactivity ([2]; 15 min after administration): 0.121 % I.D./g; Spleen radioactivity ([2]; 15 min after administration): 0.103 % I.D./g; Blood radioactivity ([2]; 30 min after administration): 0.145 % I.D./g; Bone radioactivity ([2]; 30 min after administration): 4.17 % I.D./g; Kidney radioactivity ([2]; 30 min after administration): 0.89 % I.D./g; Large intestine radioactivity ([2]; 30 min after administration): 0.054 % I.D./g; Liver radioactivity ([2]; 30 min after administration): 0.039 % I.D./g; Muscle radioactivity ([2]; 30 min after administration): 0.033 % I.D./g; Small intestine radioactivity ([2]; 30 min after administration): 0.070 % I.D./g; Spleen radioactivity ([2]; 30 min after administration): 0.046 % I.D./g; Blood radioactivity ([2]; 60 min after administration): 0.030 % I.D./g; Bone radioactivity ([2]; 60 min after administration): 4.59 % I.D./g; Kidney radioactivity ([2]; 60 min after administration): 0.43 % I.D./g; Large intestine radioactivity ([2]; 60 min after administration): 0.023 % I.D./g; Liver radioactivity ([2]; 60 min after administration): 0.020 % I.D./g; Muscle radioactivity ([2]; 60 min after administration): 0.008 % I.D./g; Small intestine radioactivity ([2]; 60 min after administration): 0.056 % I.D./g; Spleen radioactivity ([2]; 60 min after administration): 0.021 % I.D./g; Blood radioactivity ([2]; 120 min after administration): 0.005 % I.D./g; Bone radioactivity ([2]; 120 min after administration): 5.19 % I.D./g; Kidney radioactivity ([2]; 120 min after administration): 0.37 % I.D./g; Large intestine radioactivity ([2]; 120 min after administration): 0.019 % I.D./g; Liver radioactivity ([2]; 120 min after administration): 0.015 % I.D./g; Muscle radioactivity ([2]; 120 min after administration): 0.004 % I.D./g; Small intestine radioactivity ([2]; 120 min after administration): 0.073 % I.D./g; Spleen radioactivity ([2]; 120 min after administration): 0.014 % I.D./g; Blood radioactivity ([2]; 240 min after administration): 0.003 % I.D./g; Bone radioactivity ([2]; 240 min after administration): 4.75 % I.D./g; Kidney radioactivity ([2]; 240 min after administration): 0.28 % I.D./g; Large intestine radioactivity ([2]; 240 min after administration): 0.077 % I.D./g; Liver radioactivity ([2]; 240 min after administration): 0.016 % I.D./g; Muscle radioactivity ([2]; 240 min after administration): 0.002 % I.D./g; Small intestine radioactivity ([2]; 240 min after administration): 0.011 % I.D./g; Spleen radioactivity ([2]; 240 min after administration): 0.012 % I.D./g; ratio of radioactivity accumulation in bone to that in blood ([2]; compared to 99mTc-MDP, from an early stage after administration): dominantly improved; accumulation in bone ([2]; compared to 99mTc-MDP, rat): equivalent value of accumulation in bone; clearance of radioactivity from blood ([2]; compared to 99mTc-MDP, rat): more rapid clearance of radioactivity from blood; non-specific accumulation in other organs ([2]; rat, similar amount to that of 99mTc-MDP): almost no non-specific accumulation; Bone/blood ([2]; 15 min after administration): 9; Bone/blood ([2]; 30 min after administration): 29; Bone/blood ([2]; 60 min after administration): 155; Bone/blood ([2]; 120 min after administration): 958; Bone/blood ([2]; 240 min after administration): 1696; visualization of bone in images [3]: bone is clearly visualized; visualization of bone and bone lesion in PET/CT image [4]: bone and the arrowed bone lesion are clearly visualized

Question: Which results are given for `O.O.O=P([O-])([O-])CP(=O)([O-])[O-].[99Tc+4]` [99mTc-MDP]?
Answer: Blood radioactivity ([2]; 15 min after administration): 0.415 % I.D./g; Bone radioactivity ([2]; 15 min after administration): 3.25 % I.D./g; Kidney radioactivity ([2]; 15 min after administration): 2.84 % I.D./g; Large intestine radioactivity ([2]; 15 min after administration): 0.121 % I.D./g; Liver radioactivity ([2]; 15 min after administration): 0.086 % I.D./g; Muscle radioactivity ([2]; 15 min after administration): 0.085 % I.D./g; Small intestine radioactivity ([2]; 15 min after administration): 0.134 % I.D./g; Spleen radioactivity ([2]; 15 min after administration): 0.107 % I.D./g; Blood radioactivity ([2]; 30 min after administration): 0.171 % I.D./g; Bone radioactivity ([2]; 30 min after administration): 3.41 % I.D./g; Kidney radioactivity ([2]; 30 min after administration): 1.02 % I.D./g; Large intestine radioactivity ([2]; 30 min after administration): 0.062 % I.D./g; Liver radioactivity ([2]; 30 min after administration): 0.048 % I.D./g; Muscle radioactivity ([2]; 30 min after administration): 0.036 % I.D./g; Small intestine radioactivity ([2]; 30 min after administration): 0.093 % I.D./g; Spleen radioactivity ([2]; 30 min after administration): 0.056 % I.D./g; Blood radioactivity ([2]; 60 min after administration): 0.044 % I.D./g; Bone radioactivity ([2]; 60 min after administration): 3.97 % I.D./g; Kidney radioactivity ([2]; 60 min after administration): 0.62 % I.D./g; Large intestine radioactivity ([2]; 60 min after administration): 0.020 % I.D./g; Liver radioactivity ([2]; 60 min after administration): 0.029 % I.D./g; Muscle radioactivity ([2]; 60 min after administration): 0.010 % I.D./g; Small intestine radioactivity ([2]; 60 min after administration): 0.081 % I.D./g; Spleen radioactivity ([2]; 60 min after administration): 0.027 % I.D./g; Blood radioactivity ([2]; 120 min after administration): 0.018 % I.D./g; Bone radioactivity ([2]; 120 min after administration): 4.07 % I.D./g; Kidney radioactivity ([2]; 120 min after administration): 0.36 % I.D./g; Large intestine radioactivity ([2]; 120 min after administration): 0.053 % I.D./g; Liver radioactivity ([2]; 120 min after administration): 0.022 % I.D./g; Muscle radioactivity ([2]; 120 min after administration): 0.005 % I.D./g; Small intestine radioactivity ([2]; 120 min after administration): 0.299 % I.D./g; Spleen radioactivity ([2]; 120 min after administration): 0.019 % I.D./g; Blood radioactivity ([2]; 240 min after administration): 0.012 % I.D./g; Bone radioactivity ([2]; 240 min after administration): 4.25 % I.D./g; Kidney radioactivity ([2]; 240 min after administration): 0.35 % I.D./g; Large intestine radioactivity ([2]; 240 min after administration): 0.467 % I.D./g; Liver radioactivity ([2]; 240 min after administration): 0.019 % I.D./g; Muscle radioactivity ([2]; 240 min after administration): 0.004 % I.D./g; Small intestine radioactivity ([2]; 240 min after administration): 0.056 % I.D./g; Spleen radioactivity ([2]; 240 min after administration): 0.019 % I.D./g; Bone/blood ([2]; 15 min after administration): 8; Bone/blood ([2]; 30 min after administration): 20; Bone/blood ([2]; 60 min after administration): 91; Bone/blood ([2]; 120 min after administration): 228; Bone/blood ([2]; 240 min after administration): 358; Blood radioactivity [1]: 0.021 % I.D./g; Bone radioactivity [1]: 4.38 % I.D./g; Kidney radioactivity [1]: 0.44 % I.D./g; Large intestine radioactivity [1]: 0.015 % I.D./g; Liver radioactivity [1]: 0.024 % I.D./g; Muscle radioactivity [1]: 0.007 % I.D./g; Small intestine radioactivity [1]: 0.224 % I.D./g; Spleen radioactivity [1]: 0.020 % I.D./g; Bone/blood [1]: 209

— patent publication US20120148492A1, “BISPHOSPHONIC ACID DERIVATIVE AND COMPOUND THEREOF LABELED WITH RADIOACTIVE METAL NUCLIDE” (FUJIFILM RI PHARMA CO., LTD., priority 2009, published 2012)
